# Laboratory results as given in US4684664A, “Derivatives of β-(4-isocyano-1,2,3,4-diepoxycyclopentyl) acrylic acid” (Kureha Kagaku Kogyo Kabushiki Kaisha, priority 1984, dated 1987).
# Columns and labels:
# Type in all cases: cell-based
# [1] = tested on: Micrococcus luteus ATCC 9341; assay: Antibacterial activity, agar-dilution MIC, organism No. 25; conditions: Micrococcus luteus, ATCC9341; Organism No. 25, bouillon-agar; read-out: Minimum Inhibitory Concentration
# Method in brief: (§1)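 Agar dilution, bouillon-agar plates; MIC reported in μg/ml of medium.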
# [2] = tested on: Proteus vulgaris HX-19; assay: Antibacterial activity, agar-dilution MIC, organism No. 21; conditions: Proteus vulgaris, HX19; Organism No. 21, bouillon-agar; read-out: Minimum Inhibitory Concentration
# Method in brief: as §1
# [3] = tested on: Escherichia coli K12 C600 IAM 1264; assay: Antibacterial activity, agar-dilution MIC, organism No. 6; conditions: Escherichia coli, IAM1264; Organism No. 6, bouillon-agar; read-out: Minimum Inhibitory Concentration
# Method in brief: as §1
# [4] = tested on: Streptococcus pyogenes IFO 3340; assay: Antibacterial activity, agar-dilution MIC, organism No. 26; conditions: Streptococcus pyogenes, IFO3340; Organism No. 26, bouillon-agar; read-out: Minimum Inhibitory Concentration
# Method in brief: as §1
# [5] = tested on: Salmonella paratyphi-A 1015; assay: Antibacterial activity, agar-dilution MIC, organism No. 10; conditions: Salmonella enterica, PARATYPHI, read-out: Minimum Inhibitory Concentration
# Method in brief: as §1
# [6] = tested on: Candida albicans IAM 4905; assay: Antifungal activity, agar-dilution MIC, organism No. 29; conditions: Candida albicans, IAM4905; Organism No. 29, bouillon-agar; read-out: Minimum Inhibitory Concentration
# Method in brief: as §1
# [7] = tested on: Staphylococcus aureus FDA 209PJc-1; assay: Antibacterial activity, agar-dilution MIC, organism No. 1; conditions: Staphylococcus aureus, FDA209PJC1; Organism No. 1, bouillon-agar; read-out: Minimum Inhibitory Concentration
# Method in brief: as §1
# [8] = tested on: Salmonella enteritidis G 14; assay: Antibacterial activity, agar-dilution MIC, organism No. 12; conditions: Salmonella enterica, ENTERITIDIS; Organism No. 12, bouillon-agar; read-out: Minimum Inhibitory Concentration
# Method in brief: as §1
# [9] = tested on: Salmonella typhi 901; assay: Antibacterial activity, agar-dilution MIC, organism No. 9; conditions: Salmonella enterica, TYPHI, read-out: Minimum Inhibitory Concentration
# Method in brief: as §1
# [10] = tested on: Mycoplasma pneumoniae IID817; assay: Antimycoplasmal activity, MIC by phenol red colour change, organism No. 28; conditions: Mycoplasma, IID817; Organism No. 28, PPLO broth + 1% glucose, 37° C.; read-out: Minimum Inhibitory Concentration (MIC)
# Protocol: Mycoplasma pneumoniae IID817 was used as the test microorganism in a culture medium prepared by adding 1% of glucose to "PPLO broth (manufactured by Difco Co.) liquid culture medium" at 37° C. with phenol red as an indicator, thereby culturing the test microorganism.
# [11] = tested on: Klebsiella pneumoniae PCI-602; assay: Antibacterial activity, agar-dilution MIC, organism No. 7; conditions: Klebsiella pneumoniae, PCI602; Organism No. 7, bouillon-agar; read-out: Minimum Inhibitory Concentration
# Method in brief: as §1
# [12] = tested on: Enterobacter aerogenes ATCC 13048; assay: Antibacterial activity, agar-dilution MIC, organism No. 23; conditions: Klebsiella aerogenes, ATCC13048; Organism No. 23, bouillon-agar; read-out: Minimum Inhibitory Concentration
# Method in brief: as §1
# [13] = tested on: Proteus mirabilis IFO 3849; assay: Antibacterial activity, agar-dilution MIC, organism No. 19; conditions: Proteus mirabilis, IFO3849; Organism No. 19, bouillon-agar; read-out: Minimum Inhibitory Concentration
# Method in brief: as §1
# [14] = tested on: Staphylococcus aureus Terajima; assay: Antibacterial activity, agar-dilution MIC, organism No. 2; conditions: Staphylococcus aureus; Organism No. 2, bouillon-agar; read-out: Minimum Inhibitory Concentration
# Method in brief: as §1
# [15] = tested on: Pseudomonas aeruginosa PAO 1; assay: Antibacterial activity, agar-dilution MIC, organism No. 17; conditions: Pseudomonas aeruginosa, PAO1; Organism No. 17, bouillon-agar; read-out: Minimum Inhibitory Concentration
# Method in brief: as §1
# [16] = tested on: Streptococcus faecium IFO 3826; assay: Antibacterial activity, agar-dilution MIC, organism No. 27; conditions: Enterococcus faecium, IFO3826; Organism No. 27, bouillon-agar; read-out: Minimum Inhibitory Concentration
# Method in brief: as §1
# [17] = tested on: Salmonella typhimurium IID 971; assay: Antibacterial activity, agar-dilution MIC, organism No. 8; conditions: Salmonella enterica; Organism No. 8, bouillon-agar; read-out: Minimum Inhibitory Concentration
# Method in brief: as §1
# [18] = tested on: Serratia marcescens IAM 1184; assay: Antibacterial activity, agar-dilution MIC, organism No. 13; conditions: Serratia marcescens, IAM1184; Organism No. 13, bouillon-agar; read-out: Minimum Inhibitory Concentration
# Method in brief: as §1
# [19] = tested on: Pseudomonas aeruginosa IFO 3445; assay: Antibacterial activity, agar-dilution MIC, organism No. 15; conditions: Pseudomonas aeruginosa, IFO3445; Organism No. 15, bouillon-agar; read-out: Minimum Inhibitory Concentration
# Method in brief: as §1
# [20] = tested on: Proteus morganii IFO 3848; assay: Antibacterial activity, agar-dilution MIC, organism No. 18; conditions: Morganella morganii, IFO3848; Organism No. 18, bouillon-agar; read-out: Minimum Inhibitory Concentration
# Method in brief: as §1
# [21] = tested on: Staphylococcus aureus MS 353; assay: Antibacterial activity, agar-dilution MIC, organism No. 3; conditions: Staphylococcus aureus, MS353; Organism No. 3, bouillon-agar; read-out: Minimum Inhibitory Concentration
# Method in brief: as §1
# [22] = tested on: Streptococcus pyogenes Cook; assay: Antibacterial activity, agar-dilution MIC, organism No. 4; conditions: Streptococcus pyogenes; Organism No. 4, bouillon-agar; read-out: Minimum Inhibitory Concentration
# Method in brief: as §1
# [23] = tested on: Escherichia coli NIHJ-JC-2; assay: Antibacterial activity, agar-dilution MIC, organism No. 5; conditions: Escherichia coli, NIHJJC2; Organism No. 5, bouillon-agar; read-out: Minimum Inhibitory Concentration
# Method in brief: as §1
# [24] = tested on: Enterobacter cloacae 963; assay: Antibacterial activity, agar-dilution MIC, organism No. 24; conditions: Enterobacter cloacae, 963; Organism No. 24, bouillon-agar; read-out: Minimum Inhibitory Concentration
# Method in brief: as §1
# [25] = tested on: Aspergillus niger IFO 6342; assay: Antifungal activity, agar-dilution MIC, organism No. 30; conditions: Aspergillus niger, IFO6342; Organism No. 30, bouillon-agar; read-out: Minimum Inhibitory Concentration
# Method in brief: as §1
# [26] = tested on: Salmonella shottmuelleri 8006; assay: Antibacterial activity, agar-dilution MIC, organism No. 11; conditions: Salmonella, 8006; Organism No. 11, bouillon-agar; read-out: Minimum Inhibitory Concentration
# Method in brief: as §1
# [27] = tested on: Proteus vulgaris OX-19; assay: Antibacterial activity, agar-dilution MIC, organism No. 20; conditions: Proteus vulgaris, OX19; Organism No. 20, bouillon-agar; read-out: Minimum Inhibitory Concentration
# Method in brief: as §1
# [28] = tested on: Pseudomonas aeruginosa NCTC 10490; assay: Antibacterial activity, agar-dilution MIC, organism No. 16; conditions: Pseudomonas aeruginosa, NCTC10490; Organism No. 16, bouillon-agar; read-out: Minimum Inhibitory Concentration
# Method in brief: as §1
# [29] = tested on: Bacillus subtilis ATCC 6633; assay: Antibacterial activity, agar-dilution MIC, organism No. 14; conditions: Bacillus subtilis, ATCC6633; Organism No. 14, bouillon-agar; read-out: Minimum Inhibitory Concentration
# Method in brief: as §1
# [30] = tested on: Proteus rettgeri IFO 3850; assay: Antibacterial activity, agar-dilution MIC, organism No. 22; conditions: Providencia rettgeri, IFO3850; Organism No. 22, bouillon-agar; read-out: Minimum Inhibitory Concentration
# Method in brief: as §1
Compound,MIC [1] [µg/mL],MIC [2] [µg/mL],MIC [3] [µg/mL],MIC [4] [µg/mL],MIC [5] [µg/mL],MIC [6] [µg/mL],MIC [7] [µg/mL],MIC [8] [µg/mL],MIC [9] [µg/mL],MIC [10] [µg/mL],MIC [11] [µg/mL],MIC [12] [µg/mL],MIC [13] [µg/mL],MIC [14] [µg/mL],MIC [15] [µg/mL],MIC [16] [µg/mL],MIC [17] [µg/mL],MIC [18] [µg/mL],MIC [19] [µg/mL],MIC [20] [µg/mL],other results
[C-]#[N+]C12CC3(/C=C/C(=O)OCc4cc([N+](=O)[O-])ccc4OC)OC3C1O2 (stereo not drawn) [Compound No. 16],0.1,3.13,200,200,50,3.13,6.25,> 200,50,6.25,50,> 200,> 200,6.25,> 200,6.25,> 200,100,> 200,12.5,MIC [21]: 6.25 µg/mL; MIC [22]: 200 µg/mL; MIC [23]: 200 µg/mL; MIC [24]: > 200 µg/mL; MIC [25]: 6.25 µg/mL; MIC [26]: 50 µg/mL; MIC [27]: 50 µg/mL; MIC [28]: > 200 µg/mL; MIC [29]: 25 µg/mL; MIC [30]: 100 µg/mL
[C-]#[N+]C12CC3(/C=C/C(=O)OCc4ccccc4[N+](=O)[O-])OC3C1O2 (stereo not drawn) [compound 13],< 0.1,0.1,100,100,25,0.8,0.39,200,50,0.2,25,> 200,> 200,0.39,> 200,0.78,200,100,> 200,12.5,MIC [21]: 0.39 µg/mL; MIC [22]: 100 µg/mL; MIC [23]: 100 µg/mL; MIC [24]: > 200 µg/mL; MIC [25]: 6.25 µg/mL; MIC [26]: 12.5 µg/mL; MIC [27]: 25 µg/mL; MIC [28]: > 200 µg/mL; MIC [29]: 25 µg/mL; MIC [30]: 100 µg/mL
